Measurements reported in DBAASP.
≈ marks a conversion by molar mass, not a printed value. Blank lines part the entries; values can stand above or below the compound they belong to.

Key:
Assay in all cases: ≥ marks a high value that may be exact or a test limit, other limits are often not marked, values filed in µg/mL are converted to µM
[1] = system: Aspergillus niger ATCC 16404
[2] = system: Candida albicans ATCC 10231
[3] = system: Candida glabrata ATCC 15126
[4] = system: Enterococcus faecalis PCM 2673
[5] = system: Escherichia coli ATCC 23506
[6] = system: Escherichia coli ATCC 25922
[7] = system: Klebsiella pneumoniae ATCC 700603
[8] = system: Pseudomonas aeruginosa ATCC 9027
[9] = system: Staphylococcus aureus ATCC 25923
[10] = system: Staphylococcus aureus ATCC 9144
[11] = system: Streptococcus pneumoniae ATCC 49619
[12] = system: Bacillus cereus ATCC 11778
[13] = system: Pseudomonas aeruginosa ATCC 27853
[14] = system: Salmonella enterica subsp. enterica serovar Enteritidis ATCC 13076
[15] = system: Serratia marcescens ATCC 21202
[16] = system: Staphylococcus aureus ATCC 29213
[17] = system: Streptococcus pyogenes ATCC 19615
[18] = system: Escherichia coli CCARM 1229
[19] = system: Escherichia coli CCARM 1238
[20] = system: Listeria monocytogenes KCTC 3710
[21] = system: Pseudomonas aeruginosa 3592
[22] = system: Pseudomonas aeruginosa 5018
[23] = system: Salmonella typhimurium CCARM 8009
[24] = system: Salmonella typhimurium CCARM 8013
[25] = system: Salmonella typhimurium KCTC 1926
[26] = system: Staphylococcus aureus CCARM 3114
[27] = system: Staphylococcus aureus CCARM 3709
[28] = system: Bacillus subtilis ATCC 6633
[29] = system: Klebsiella pneumoniae H507
[30] = system: Listeria monocytogenes ATCC 19115
[31] = system: Salmonella enterica subsp. enterica serovar Enteritidis CVCC 3377
[32] = system: Streptococcus suis CVCC 606
[33] = system: Bacillus subtilis KCTC 3068
Enterococcus faecalis VR = system: Enterococcus faecalis VR
Enterococcus faecalis = system: Enterococcus faecalis
Enterococcus faecium VR = system: Enterococcus faecium VR
Enterococcus faecium = system: Enterococcus faecium
[34] = system: Escherichia coli KCTC 1682
[35] = system: Pseudomonas aeruginosa KCTC 1637
[36] = system: Staphylococcus aureus KCTC 1621
Staphylococcus aureus MR = system: Staphylococcus aureus MR
[37] = system: Staphylococcus epidermidis KCTC 1917

Compound: CC[C@H](C)[C@H](NC(=O)CN)C(=O)N[C@@H](Cc1cnc[nH]1)C(=O)N[C@@H](Cc1cnc[nH]1)C(=O)N[C@H](C(=O)N[C@@H](CC(C)C)C(=O)N[C@@H](CCCCN)C(=O)N[C@@H](Cc1ccc(O)cc1)C(=O)NCC(=O)N[C@@H](CCCCN)C(=O)N1CCC[C@H]1C(=O)N[C@@H](CO)C(=O)O)[C@@H](C)CC [GIHHILKYGKPS]
MIC [6]: > 32 µM
MIC [18]: ≥ 32 µM
MIC [19]: ≥ 32 µM
MIC [20]: ≥ 32 µM
MIC [21]: ≥ 32 µM
MIC [22]: ≥ 32 µM
MIC [13]: > 32 µM
MIC [23]: ≥ 32 µM
MIC [24]: ≥ 32 µM
MIC [25]: ≥ 32 µM
MIC [9]: > 32 µM
MIC [26]: ≥ 32 µM
MIC [27]: ≥ 32 µM

Compound: CC[C@H](C)[C@H](NC(=O)[C@H](CC(C)C)NC(=O)[C@H](CS)NC(=O)[C@H](Cc1cnc[nH]1)NC(=O)[C@H](C)NC(=O)[C@H](C)N)C(=O)NCC(=O)N[C@@H](CCCN=C(N)N)C(=O)N[C@@H](CCCCN)C(N)=O [AAHCLIGRK]
MIC [33]: 7.5 µM
MIC (Enterococcus faecalis VR): 30 µM
MIC (Enterococcus faecalis): 30 µM
MIC (Enterococcus faecium VR): 7.5 µM
MIC (Enterococcus faecium): 30 µM
MIC [34]: 15 µM
MIC [35]: 15 µM
MIC [25]: 15 µM
MIC [36]: 15 µM
MIC (Staphylococcus aureus MR): 15 µM
MIC [37]: 7.5 µM

Results, then the compound that gave them:

MIC [1]: ≥ 145 µM
MIC [2]: 145 µM (≈ 256 µg/mL)
MIC [3]: ≥ 145 µM
MIC [4]: ≥ 36.1 µM
MIC [5]: ≥ 36.1 µM
MIC [6]: 72.3 µM (≈ 128 µg/mL)
MIC [7]: 1.13 µM (≈ 2 µg/mL)
MIC [8]: 4.52 µM (≈ 8 µg/mL)
MIC [9]: 72.3 µM (≈ 128 µg/mL)
MIC [10]: ≥ 36.1 µM
MIC [11]: ≥ 72.3 µM
Compound: CC[C@H](C)[C@H](NC(=O)CNC(=O)[C@H](C)NC(=O)[C@@H](NC(=O)[C@H](CC(C)C)NC(=O)[C@H](CCCCN)NC(=O)[C@@H](NC(=O)[C@@H](N)CC(C)C)C(C)C)C(C)C)C(=O)N[C@@H](CCCCN)C(=O)N[C@@H](CCCCN)C(=O)N[C@@H](Cc1ccccc1)C(=O)N[C@@H](CC(C)C)C(=O)N[C@@H](CCCCN)C(=O)N[C@@H](Cc1c[nH]c2ccccc12)C(=O)N[C@@H](CCCCN)C(N)=O [LVKLVAGIKKFLKWK]

MIC [12]: ≥ 37.9 µM
MIC [6]: > 37.9 µM
MIC [7]: > 37.9 µM
MIC [13]: > 37.9 µM
MIC [14]: ≥ 37.9 µM
MIC [15]: ≥ 37.9 µM
MIC [16]: > 37.9 µM
MIC [17]: ≥ 37.9 µM
Compound: CC[C@H](C)[C@H](N)C(=O)N[C@H](C(=O)N1CCC[C@H]1C(=O)N[C@@H](CC(C)C)C(=O)N1CCC[C@H]1C(=O)N[C@@H](CC(C)C)C(=O)NCC(=O)N[C@@H](Cc1ccc(O)cc1)C(=O)N[C@@H](Cc1ccccc1)C(=O)N[C@@H](C)C(=O)N[C@@H](CCCCN)C(=O)N[C@@H](CCCCN)C(=O)N[C@@H](CCCCN)C(=O)N[C@@H](CCCCN)C(=O)N[C@@H](CCCCN)C(=O)N[C@@H](CCCCN)C(=O)N[C@@H](CC(=O)O)C(=O)N1CCC[C@H]1C(=O)N[C@H](C(=O)N1CCC[C@H]1C(=O)N[C@@H](CC(C)C)C(=O)N[C@@H](CC(=O)O)C(=O)N[C@@H](CCC(N)=O)C(=O)O)C(C)C)[C@@H](C)CC [IIPLPLGYFAKKKKKKDPVPLDQ]

MIC [28]: 7.95 µM (≈ 25 µg/mL)
MIC [6]: 0.986 µM (≈ 3.1 µg/mL)
MIC [29]: 7.95 µM (≈ 25 µg/mL)
MIC [30]: 3.97 µM (≈ 12.5 µg/mL)
MIC [13]: 3.97 µM (≈ 12.5 µg/mL)
MIC [31]: 2 µM (≈ 6.3 µg/mL)
MIC [9]: 0.986 µM (≈ 3.1 µg/mL)
MIC [32]: 0.986 µM (≈ 3.1 µg/mL)
Compound: CC[C@H](C)[C@H](NC(=O)[C@H](Cc1ccccc1)NC(=O)[C@H](CC(=O)O)NC(=O)[C@H](CCCCN)NC(=O)[C@H](CCCCN)NC(=O)[C@H](CCC(=O)O)NC(=O)[C@H](Cc1c[nH]c2ccccc12)NC(=O)[C@@H](NC(=O)[C@@H](NC(=O)[C@H](CCCCN)NC(=O)[C@@H](NC(=O)[C@H](CCCCN)NC(=O)[C@H](CCCN=C(N)N)NC(=O)[C@H](CCCN=C(N)N)NC(=O)[C@H](CCSC)NC(=O)[C@@H](NC(=O)[C@H](CCCN=C(N)N)NC(=O)[C@H](CCSC)NC(=O)[C@@H](N)CCSC)C(C)C)[C@@H](C)O)C(C)C)[C@@H](C)CC)C(=O)NCC(=O)N[C@@H](CC(C)C)C(=O)N[C@@H](Cc1ccc(O)cc1)C(=O)N[C@@H](CO)C(=O)N[C@H](C(=O)N[C@@H](CC(=O)O)C(=O)O)[C@@H](C)CC [MMRVMRRKTKVIWEKKDFIGLYSID]
